Results from patent US20240016941A1, “COMBINATION THERAPY” (priority 2020, published 2024).
pKi: −log10 of the molar value.

Assays:
[1] = target: T1, LasB elastase activity of dialysed supernatant from P. aeruginosa PAO1 (Pseudomonas aeruginosa, UniProt P14756); test: Elastin Congo-Red assay to determine % inhibition (dialysed PAO1 supernatant); format: biochemical; conditions: read-out: Elastin hydrolysis % inhibition @ 25 μM inhibitor concentration
T1 construct: Culture supernatants are recovered by centrifugation and filtrated through a 0.22 μM filter; endogenous in cells; host or cells: P. aeruginosa strain PAO1, culture supernatant, filtered and dialysed
Method: (§1) Experiments were therefore conducted (1) to measure the potency of inhibition of compounds of the invention against purified Pseudomonas aeruginosa LasB enzyme and also experiments were conducted (2) to measure the ability of compounds of the invention to inhibit LasB-catalysed elastin degradation. The first assay uses a commercial fluorescent synthetic peptide and purified LasB enzyme. The LasB hydrolysis kinetics are measured allowing the determination of the IC50 and Ki of the inhibitors; the second is a more physiological assay using dialysed Pseudomonas aeruginosa supernatant as source of enzyme, plus its natural substrate Elastin. It is an “end point assay” that determines the percentage of LasB inhibition by each compound for one particular time point and inhibitor concentration. Technical details are described below:
The Elastin assay uses as source of enzyme dialysed supernatant from P. aeruginosa PAO1 and the Elastin Congo-Red as substrate. The natural LasB substrate, elastin, is complexed with the congo-red dye (Elastin Congo-Red, ECR). The elastolysis activity from the culture supernatant will degrade elastin and release the congo-red dye into the supernatant. This red dye release can be measured with a spectrophotometer.
Method: To determine LasB elastase activity and assess compound inhibition, an overnight culture of P. aeruginosa strain PAO1 is diluted in LB medium. After reaching an OD600nm of 0.6, this culture is diluted and incubated for additional 18-24 hours in a shaking incubator. Culture supernatants are recovered by centrifugation and filtrated through a […] filter. These supernatants are dialysed (filtration molecules <20 kDa) into a 50 mM Tris-HCl pH 7.4, 2.5 mM CaCl2 solution at 4° C. under agitation for 24 hours. Supernatant dialysed is then mixed volume/volume with the ECR suspension (20 mg/mL of ECR in 100 mM Tris-HCl pH 7.4 buffer supplemented with 1 mM CaCl2)) supplemented with Triton X100 (final concentration of 0.01%) in presence of DMSO (positive control) and/or different concentrations of compound (routinely 50 to 1.56 μM). As a negative control, the dialysed supernatant is replaced by Tris-HCl solution (50 mM Tris-HCl pH 7.4, 2.5 mM CaCl2). The mixed reaction is then incubated overnight in a 37° C. shaking incubator. The reaction supernatant is recovered by centrifugation and the release of congo-red is measured by its absorbance at 495 nm (OD495nm).
Percentage inhibition is determined using the following equation:
((OD495 nm value of positive control−OD495nm value of negative control)−(OD495nm value of treated supernatant−OD495nm value of negative control))/(OD495nm value of positive control−OD495nm value of negative control)×100.

[2] = target: T2, purified LasB protein from P. aeruginosa (Pseudomonas aeruginosa, UniProt P14756); test: Fluorometric assay to determine Ki (purified LasB, Abz-Ala-Gly-Leu-Ala-p-Nitro-Benzyl-Amide substrate); format: biochemical
T2 construct: purchased Merck or Charles River Laboratories
Method: as §1
This assay uses commercially available substrate (Abz-Ala-Gly-Leu-Ala-p-Nitro-Benzyl-Amide (Ex: 340 nm, Em: 415 nm) from Peptide International) and purified LasB protein from P. aeruginosa (provided by Merck or Charles River Laboratories). It is performed to determine LasB elastase activity and assess compound inhibition in 96-well plate format. All compounds of Formula (I) were assessed using the method described below.
Method: 10 to 140 ng/ml purified LasB is incubated with 250 μM Abz-Ala-Gly-Leu-Ala-p-Nitro-Benzyl-Amide in 50 mM Tris-HCl pH 7.4, 2.5 mM CaCl2), 0.01% of Triton X100 at 37° C. LasB activity (corresponding to fluorescence emission induced by substrate hydrolysis) is measured over 30 min at 37° C. with a fluorescence plate reader such as the Perkin Elmer Envision or similar. Different range of inhibitor concentrations are routinely assessed depending of inhibitor potency from 0.0016 to 200 μM (2-fold dilutions series) in order to determine IC50.
The equation used to calculate the Ki from IC50 is: Ki=IC50/(1+([S]/Km)) where [S]=250 μM and Km=214 μM.

T2 sequence (P14756 198-498): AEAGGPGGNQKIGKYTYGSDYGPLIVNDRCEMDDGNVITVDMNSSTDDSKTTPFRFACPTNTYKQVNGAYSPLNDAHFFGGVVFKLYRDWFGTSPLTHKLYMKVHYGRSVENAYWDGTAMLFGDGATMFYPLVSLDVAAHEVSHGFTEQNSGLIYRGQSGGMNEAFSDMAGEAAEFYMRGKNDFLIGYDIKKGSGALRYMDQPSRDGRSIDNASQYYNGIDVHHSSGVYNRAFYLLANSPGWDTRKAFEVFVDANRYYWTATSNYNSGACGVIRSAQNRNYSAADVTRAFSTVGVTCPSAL
T1 sequence (P14756 198-498): as above

SMILES	inhibition at 25 µM [1]	pKi [2]
COc1cc2sc(CNC(=O)C3(CC(=O)[O-])Cc4cc(F)c(F)cc4C3)nc2cc1OCC[N+]1(C)CCOCC1 [Example 13, 2-[5,6-difluoro-2-[[6-methoxy-5-[2-(4-methylmorpholin-4-ium-4-yl)ethoxy]-1,3-benzothiazol-2-yl]methylcarbamoyl]indan-2-yl]acetate]	60 to 80%	6.70 to 7.30
CN(C)CCNC(=O)c1ccc2nc(CNC(=O)C3(CC(=O)O)Cc4ccccc4C3)sc2c1 [Example 30, 2-[2-[[6-[2-(dimethylamino)ethylcarbamoyl]-1,3-benzothiazol-2-yl]methylcarbamoyl]indan-2-yl]acetic acid]	–	5.00 to 6.70
COc1cc2sc(CNC(=O)C3(CC(=O)O)Cc4ccccc4C3)nc2cc1C(=O)N1CCOC(CN(C)C)C1 (stereo not drawn) [Example 40, 2-[2-[[5-[2-[(dimethylamino)methyl]morpholine-4-carbonyl]-6-methoxy-1,3-benzothiazol-2-yl]methylcarbamoyl]indan-2-yl]acetic acid]	60 to 80%	6.70 to 7.30
CN1CCN(C(=O)c2ccc3nc(CNC(=O)C4(CC(=O)O)Cc5ccccc5C4)sc3c2)CC1 [Example 29, 2-[2-[[6-(4-methylpiperazine-1-carbonyl)-1,3-benzothiazol-2-yl]methylcarbamoyl]indan-2-yl]acetic acid]	–	5.00 to 6.70
COc1cc2sc(CNC(=O)C3(CC(=O)O)Cc4cc(F)c(F)cc4C3)nc2cc1C(=O)N1CCN(C)CC1 [Example 34, 2-[5,6-difluoro-2-[[6-methoxy-5-(4-methylpiperazine-1-carbonyl)-1,3-benzothiazol-2-yl]methylcarbamoyl]indan-2-yl]acetic acid]	> 80%	> 7.30
COc1cc2sc(CNC(=O)C3(CC(=O)O)Cc4cc(F)c(F)cc4C3)nc2cc1OCCN1CCOCC1 [Example 10, 2-[5,6-difluoro-2-[[6-methoxy-5-(2-morpholinoethoxy)-1,3-benzothiazol-2-yl]methylcarbamoyl]indan-2-yl]acetic acid]	> 80%	> 7.30
O=C(O)CC1(C(=O)NCc2nc3c(S(=O)(=O)N4CCCC4)cccc3s2)Cc2ccccc2C1 [Example 3, 2-[2-[(4-pyrrolidin-1-ylsulfonyl-1,3-benzothiazol-2-yl)methylcarbamoyl]indan-2-yl]acetic acid]	60 to 80%	6.70 to 7.30
NC(=O)c1cccc2sc(CNC(=O)C3(CC(=O)O)Cc4ccccc4C3)nc12 [Example 1, 2-[2-[(4-carbamoyl-1,3-benzothiazol-2-yl)methylcarbamoyl]indan-2-yl]acetic acid]	10 to 60%	5.00 to 6.70
O=C(O)CC1(C(=O)NCc2nc3ccc(OCCCO)cc3s2)Cc2ccccc2C1 [Example 50, 2-[2-[[6-(3-hydroxypropoxy)-1,3-benzothiazol-2-yl]methylcarbamoyl]indan-2-yl]acetic acid]	–	7.00 to 7.30
COc1cc2sc(CNC(=O)C3(CC(=O)[O-])Cc4cc(F)c(F)cc4C3)nc2cc1OCCC[N+](C)(C)CCO [Example 21, 2-[5,6-difluoro-2-[[5-[3-[2-hydroxyethyl(dimethyl)ammonio]propoxy]-6-methoxy-1,3-benzothiazol-2-yl]methylcarbamoyl]indan-2-yl]acetate]	> 80%	> 7.30
COc1cc2sc(CNC(=O)C3(CC(=O)[O-])Cc4ccccc4C3)nc2cc1C(=O)N1CCC([N+](C)(C)C)CC1 [Example 39, 2-[2-[[6-methoxy-5-[4-(trimethylammonio)piperidine-1-carbonyl]-1,3-benzothiazol-2-yl]methylcarbamoyl]indan-2-yl]acetate]	–	5.00 to 6.70
COc1cc2sc(CNC(=O)C3(CC(=O)O)Cc4ccccc4C3)nc2cc1S(=O)(=O)N1CCN(C)CC1 [Example 45, 2-[2-[[6-methoxy-5-(4-methylpiperazin-1-yl)sulfonyl-1,3-benzothiazol-2-yl]methylcarbamoyl]indan-2-yl]acetic acid]	60 to 80%	6.70 to 7.30
CN(C)C1CN(C(=O)c2ccc3sc(CNC(=O)C4(CC(=O)O)Cc5ccccc5C4)nc3c2)C1 [Example 32, 2-[2-[[5-[3-(dimethylamino)azetidine-1-carbonyl]-1,3-benzothiazol-2-yl]methylcarbamoyl]indan-2-yl]acetic acid]	60 to 80%	6.70 to 7.30
CN(C)CCCN1CCN(C(=O)c2ccc3sc(CNC(=O)C4(CC(=O)O)Cc5ccccc5C4)nc3c2)CC1 [Example 31, 2-[2-[[5-[4-[3-(dimethylamino)propyl]piperazine-1-carbonyl]-1,3-benzothiazol-2-yl]methylcarbamoyl]indan-2-yl]acetic acid]	–	5.00 to 6.70
CN(C)C1CN(C(=O)c2ccc3nc(CNC(=O)C4(CC(=O)O)Cc5ccccc5C4)sc3c2)C1 [Example 26, 2-[2-[[6-[3-(dimethylamino)azetidine-1-carbonyl]-1,3-benzothiazol-2-yl]methylcarbamoyl]indan-2-yl]acetic acid]	–	5.00 to 6.70
CCCOc1ccc2nc(CNC(=O)C3(CC(=O)O)Cc4ccccc4C3)sc2c1 [Example 51, 2-[2-[(6-propoxy-1,3-benzothiazol-2-yl)methylcarbamoyl]indan-2-yl]acetic acid]	–	7.00 to 7.30
CN(C)CCNC(=O)c1ccc2sc(CNC(=O)C3(CC(=O)O)Cc4ccccc4C3)nc2c1 [Example 28, 2-[2-[[5-[2-(dimethylamino)ethylcarbamoyl]-1,3-benzothiazol-2-yl]methylcarbamoyl]indan-2-yl]acetic acid]	–	5.00 to 6.70
COc1cc2sc(CNC(=O)C3(CC(=O)[O-])Cc4ccccc4C3)nc2cc1OCCOCC[N+](C)(C)C [Example 54, 2-[2-[[6-methoxy-5-[2-[2-(trimethylammonio)ethoxy]ethoxy]-1,3-benzothiazol-2-yl]methylcarbamoyl]indan-2-yl]acetate]	–	7.00 to 7.30
NS(=O)(=O)c1cccc2sc(CNC(=O)C3(CC(=O)O)Cc4ccccc4C3)nc12 [Example 4, 2-[2-[(4-sulfamoyl-1,3-benzothiazol-2-yl)methylcarbamoyl]indan-2-yl]acetic acid]	–	5.00 to 6.70
COc1cc2sc(CNC(=O)C3(CC(=O)O)Cc4ccccc4C3)nc2cc1OCCCN(C)C [Example 52, 2-[2-[[5-[3-(dimethylamino)propoxy]-6-methoxy-1,3-benzothiazol-2-yl]methylcarbamoyl]indan-2-yl]acetic acid]	–	7.00 to 7.30
COc1cc2sc(CNC(=O)C3(CC(=O)[O-])Cc4cc(F)c(F)cc4C3)nc2cc1OCC[N+](C)(C)C [Example 56, 2-[5,6-difluoro-2-[[6-methoxy-5-[2-(trimethylammonio)ethoxy]-1,3-benzothiazol-2-yl]methylcarbamoyl]indan-2-yl]acetate]	–	7.00 to 7.30
CS(=O)(=O)c1cccc2sc(CNC(=O)C3(CC(=O)O)Cc4ccccc4C3)nc12 [Example 7, 2-[2-[(4-methylsulfonyl-1,3-benzothiazol-2-yl)methylcarbamoyl]indan-2-yl]acetic acid]	–	5.00 to 6.70
O=C(O)CC1(C(=O)NCc2nc3c(C(=O)N4CCCC4)cccc3s2)Cc2ccccc2C1 [Example 2, 2-[2-[[4-(pyrrolidine-1-carbonyl)-1,3-benzothiazol-2-yl]methylcarbamoyl]indan-2-yl]acetic acid]	–	5.00 to 6.70
O=C(O)CC1(C(=O)NCc2nc3c(S(=O)(=O)N4CCNCC4)cccc3s2)Cc2ccccc2C1 [Example 5, 2-[2-[(4-piperazin-1-ylsulfonyl-1,3-benzothiazol-2-yl)methylcarbamoyl]indan-2-yl]acetic acid]	–	5.00 to 6.70
